Results reported in patent US20240336642A1 (The General Hospital Corporation, priority 2021, published 2024).

Legend:
[1] = Solubility in formulation vehicles (Solutol HS-15/PEG400, Captisol); type: physicochemical; conditions: 10% Solutol/90% PEG400
Description: Combinations of Solutol HS-15 (also known as Kolliphor HS-15) with PEG400 provided a good vehicle to solubilize the tested compounds. Specifically, 10% Solutol/90% PEG400 was used to prepare 20 mg/ml solutions of compound 1, compound 44, and compound 32. 10% Solutol/15% H2O/[…] led to 10 mg/ml solutions of the tested compounds.
20 mg/ml were obtained in 20% Captisol, allowing for intravenous delivery in the mouse stroke model.

Mouse 12/15-LOX E. coli = Mouse 12/15-LOX E. coli (Mus musculus (Mouse), UniProt P39654); experiment: Mouse 12/15-LOX E. coli IC50; type: biochemical
[2] = test system: experimental stroke model in mice (MCAO); experiment: Mouse stroke model, filament middle cerebral artery occlusion (MCAO), infarct size; type: in vivo
Description: Studies were carried out in experimental stroke model in mice, using the filament model of middle cerebral artery occlusion (MCAO). For intraperitoneal delivery, compounds were dissolved in DMSO. A number of exemplified compounds were able to reduce infarct size when given at a dosage of 40 mg/kg.
40 mg/kg cmpd. 1 were given i.p. at time of reperfusion. Infarct size was measured at 24 hours after 60 minutes MCAO.
MCAO (Experimental Middle Cerebral Artery Ischemia and Functional Recovery) experiment: 40 mg/kg of compound delivered intraperitoneally 2 h post reperfusion, 60 minutes MCAO, sacrifice at 24 h, infarct size determined by TTC staining.

15-LOX2 = 15-LOX2 (Homo sapiens (Human), UniProt O15296); experiment: Selectivity versus 15-LOX2; type: biochemical
Chain of 15-LOX2 (O15296 whole entry): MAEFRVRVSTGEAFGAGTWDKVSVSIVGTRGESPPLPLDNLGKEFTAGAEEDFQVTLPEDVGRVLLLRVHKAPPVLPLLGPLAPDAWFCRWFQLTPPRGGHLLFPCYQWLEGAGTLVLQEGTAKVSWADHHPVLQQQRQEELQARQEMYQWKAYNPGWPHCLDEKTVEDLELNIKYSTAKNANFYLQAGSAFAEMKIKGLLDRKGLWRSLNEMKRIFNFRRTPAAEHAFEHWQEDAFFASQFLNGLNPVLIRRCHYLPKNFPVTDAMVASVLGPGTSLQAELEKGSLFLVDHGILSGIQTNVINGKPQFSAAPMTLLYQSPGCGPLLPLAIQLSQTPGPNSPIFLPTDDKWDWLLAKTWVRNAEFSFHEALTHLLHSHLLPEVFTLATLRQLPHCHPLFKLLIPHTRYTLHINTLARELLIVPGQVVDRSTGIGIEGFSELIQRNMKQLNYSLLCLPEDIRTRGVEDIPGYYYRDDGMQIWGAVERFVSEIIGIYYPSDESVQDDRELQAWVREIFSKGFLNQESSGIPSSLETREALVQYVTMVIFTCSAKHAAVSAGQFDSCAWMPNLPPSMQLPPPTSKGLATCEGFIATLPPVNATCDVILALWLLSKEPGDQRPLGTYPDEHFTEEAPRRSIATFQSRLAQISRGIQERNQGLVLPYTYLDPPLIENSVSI

Chain of Mouse 12/15-LOX E. coli (P39654 whole entry): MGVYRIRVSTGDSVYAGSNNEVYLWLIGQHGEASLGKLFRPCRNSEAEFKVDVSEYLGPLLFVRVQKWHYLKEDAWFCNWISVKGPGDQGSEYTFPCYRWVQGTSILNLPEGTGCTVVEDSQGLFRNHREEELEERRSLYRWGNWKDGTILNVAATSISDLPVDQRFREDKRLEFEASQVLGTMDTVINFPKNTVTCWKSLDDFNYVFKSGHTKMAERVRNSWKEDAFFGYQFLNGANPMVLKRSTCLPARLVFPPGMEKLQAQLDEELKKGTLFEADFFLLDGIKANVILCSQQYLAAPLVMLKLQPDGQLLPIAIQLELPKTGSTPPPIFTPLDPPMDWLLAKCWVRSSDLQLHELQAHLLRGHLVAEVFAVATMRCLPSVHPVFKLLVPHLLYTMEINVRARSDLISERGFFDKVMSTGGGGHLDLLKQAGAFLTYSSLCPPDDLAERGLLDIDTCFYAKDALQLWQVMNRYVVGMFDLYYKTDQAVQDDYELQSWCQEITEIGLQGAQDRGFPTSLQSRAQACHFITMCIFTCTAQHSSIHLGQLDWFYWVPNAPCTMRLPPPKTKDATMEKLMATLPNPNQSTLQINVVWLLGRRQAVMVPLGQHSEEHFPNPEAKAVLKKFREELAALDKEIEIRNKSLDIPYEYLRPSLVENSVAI

## CNc1oc(-c2cc(Cl)cc(Cl)c2Cl)nc1C#N [Compound 1, 5-(methylamino)-2-(2,3,5-trichlorophenyl) oxazole-4-carbonitrile]
[1]
  solution concentration achieved: 20 mg/mL
Mouse 12/15-LOX E. coli
  IC50: 180 nM
  Mouse 12/15-LOX E. coli % max: 82%
[2]; 20 mg/kg i.v. 2 hours post reperfusion
  infarct size reduction: 25.8%
[2]; 40 mg/kg i.v. in 10% Solutol/90% PEG400, 2 h after reperfusion, 24 h
  infarct size reduction: 34.1%
[2]; female mice, 40 mg/kg i.p. at time of reperfusion, 24 h after 60 minutes MCAO
  infarct size reduction: 37.2%
[2]; male mice, 40 mg/kg i.p. at time of reperfusion, 24 h after 60 minutes MCAO
  infarct size reduction: 33.4%
15-LOX2
  selectivity over 15-LOX2: > 400 fold
